Data from patent US10723770B2, “Crystal structure of the large ribosomal subunit from S. aureus” (Yeda Research and Development Co. Ltd., priority 2015, dated 2020).
In brackets after ≈: the same amount, converted by molar mass.

What was measured:
SA ribosomes = assay: S. aureus cell free in vitro transcription-translation assay (luciferase reporter); assay type: biochemical, Staphylococcus aureus; conditions: for IC50, inhibition of protein synthesis: luciferase luminescence, S. aureus system
Protocol: The SA ribosomes activity was tested and its level was determined in a bacterial coupled transcription/translation assay system which measures the expression of the luciferase gene, according to Murray, R. W. et al. [Antimicrobial agents and chemotherapy, 2001, 45(6), p. 1900-1904]. Briefly, the luciferase gene was inserted into plasmid with T7 RNA polymerase promoter. The 30 μl reaction's volume contained 160 mM Hepes-KOH buffer (pH 7.5), 6.5% PEG 8K, 0.074 mg/ml tyrosine, 1.3 mM ATP, 0.86 mM CTP, GTP and UTP, 208 mM potassium glutamate, 83 mM creatine phosphate, 28 mM NH4OAc, 0.663 mM cAMP, 1.8 mM DTT, 0.036 mg/ml folinic acid, 0.174 mg/ml E. coli tRNA mix, 1 mM amino acid, 0.25 mg/ml creatine kinase, 0.027 mg/ml T7 RNA polymerase, ribosome free E. coli cell free extract, 300 nM of SA ribosomes and 0.003 μg/μl luciferase plasmid.
The reaction mixture was incubated at 37° C. for 1 hour, and erythromycin was added at a final concentration of 8 μM in order to terminate the reaction. 50 μl of Luciferin Assay Reagent (LAR, Promega) was added to the mixture and luminescence was measured in order to quantify the reaction's products.
FIGS. 20A-B present the results of in vitro transcription-translation cell-free inhibition assays of bacterial protein synthesis, wherein the inhibitory effect on protein expression in S. aureus system of BC-3205 is presented in FIG. 20A and of lefamulin is presented in FIG. 20B. The activity of the reporter protein (luciferase) in the presence of various concentrations of BC-3205 and lefamulin is shown as arbitrary unit of luminescence [a.u.].

Staphylococcus aureus = conditions: cited from earlier work

| Structure (SMILES) | IC50 against S. aureus ribosome compared to E. coli ones (SA ribosomes; in words only, data not shown) | IC50, inhibition of protein synthesis (SA ribosomes) [µg/mL] | MIC against SA (Staphylococcus aureus) [µg/mL] | potency against SA relative to linezolid (Staphylococcus aureus; more potent than linezolid) |
| --- | --- | --- | --- | --- |
| CCC[C@@H]1C[C@@H](C(=O)N[C@@H]([C@H]2O[C@H](SC)[C@H](O)[C@@H](O)[C@H]2O)[C@@H](C)O)N(C)C1 [lincomycin] | super low IC50 | – | – | – |
| C=C[C@]1(C)C[C@@H](OC(=O)CS[C@H]2CCCN(C(=O)[C@H](N)C(C)C)C2)[C@]2(C)[C@H](C)CC[C@]3(CCC(=O)[C@H]32)[C@@H](C)[C@@H]1O [BC-3205] | – | 0.42 | 0.06 (≈ 0.104 µM) | 16-32 fold |
| C=C[C@]1(C)C[C@@H](OC(=O)CS[C@@H]2CC[C@@H](N)C[C@H]2O)[C@]2(C)[C@H](C)CC[C@]3(CCC(=O)[C@H]32)[C@@H](C)[C@@H]1O [lefamulin] | – | 0.09 | – | – |
